Test system: Ctenocephalides felis
Experiment: Ctenocephalides felis oral test
Assay type: in vivo
Conditions: application rate 100 ppm in citrated cattle blood; after 2 days
Procedure, shortened: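 Oral exposure of unfed adult fleas, roughly 20 per chamber, to compound-spiked citrated cattle blood taken up across a parafilm membrane. Read-out is percent kill at 2 days, where 100% means every flea dead.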

Structure (SMILES)	efficacy (kill in %) [%]
Cn1nc(C(F)(F)C(F)(F)F)c(C(F)(F)F)c1-n1cc(-c2ccc(F)c(NC(=O)c3ccncn3)c2)cn1 [Example 1-034]	100
Cn1nc(C(F)(F)C(F)(F)F)c(C(F)(F)F)c1-n1cc(-c2ccc(F)c(NC(=O)c3ccccc3F)c2)cn1 [Example 1-071]	90
Cc1ncc(-c2cnn(-c3c(C(F)(F)F)c(C(F)(F)C(F)(F)F)nn3C)c2)cc1NC(=O)c1ccc(F)cc1 [Example 2-003]	100
COC1CCC(C(=O)Nc2cc(-c3cnn(-c4c(C(F)(F)F)c(C(F)(F)C(F)(F)F)nn4C)c3)ccc2F)CC1 (mixture of isomers) [Example 1-047]	100

Test system: Rhipicephalus sanguineus
Experiment: Rhipicephalus sanguineus in vitro contact test with adult brown dog ticks
Assay type: in vivo
Conditions: application rate 5 μg/cm^2 (500 g/ha); after 48 h; ticks dead or moribund
Procedure, shortened: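 Test tubes (25 ml) were coated by dissolving active ingredient in acetone p.a., diluting to the required concentration, and spreading 250 μl over the inner walls and base on an orbital shaker at 30 rpm for 2 h. Once dry, 5-10 adult Rhipicephalus sanguineus were added, and tubes were capped with perforated lids and kept horizontal in darkness at room temperature. At 48 h, ticks were knocked down and heated at 45-50° C. for up to 5 min. Those unable to climb away were counted dead or moribund, and efficacy ran from 0% to 100%.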

Structure (SMILES)	efficacy [%]
Cn1nc(C(F)(F)C(F)(F)F)c(C(F)(F)F)c1-n1cc(-c2ccc(F)c(NC(=O)c3ccncn3)c2)cn1 [Example 1-034]	100
Cc1ncc(-c2cnn(-c3c(C(F)(F)F)c(C(F)(F)C(F)(F)F)nn3C)c2)cc1NC(=O)c1ccc(F)cc1 [Example 2-003]	100

Test system: Spodoptera frugiperda
Experiment: Spodoptera frugiperda spray test
Assay type: in vivo
Conditions: application rate 100 g/ha; caterpillars; after 7 days
Procedure, shortened: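 Maize leaf discs were sprayed with compound formulated in solvent plus water containing 1000 ppm emulsifier, dried, then infested with Spodoptera frugiperda caterpillars. Efficacy in % mortality was scored after 7 days (100% all killed, 0% none).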

Structure (SMILES)	efficacy [%]
Cn1nc(C(F)(F)C(F)(F)F)c(C(F)(F)F)c1-n1cc(-c2ccc(F)c(NC(=O)c3ccncn3)c2)cn1 [Example 1-034]	100
Cn1nc(C(F)(F)C(F)(F)F)c(C(F)(F)F)c1-n1cc(-c2ccc(F)c(NC(=O)c3ccccc3F)c2)cn1 [Example 1-071]	100
Cc1ncc(-c2cnn(-c3c(C(F)(F)F)c(C(F)(F)C(F)(F)F)nn3C)c2)cc1NC(=O)c1ccc(F)cc1 [Example 2-003]	100

Test system: Boophilus microplus
Experiment: Boophilus microplus injection test
Assay type: in vivo
Conditions: application rate 20 μg/animal; injection into abdomen; assessed after 7 days
Procedure, shortened: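 Engorged adult female Boophilus microplus ticks (5 per dose) each received a 1 μl abdominal injection of compound in DMSO and were held in a climate-controlled room. Efficacy was scored after 7 days from fertile egg laying, with unclear eggs kept until hatching (~42 days); 100% means no fertile eggs.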

Structure (SMILES)	efficacy (laying of fertile eggs) [%]
Cn1nc(C(F)(F)C(F)(F)F)c(C(F)(F)F)c1-n1cc(-c2ccc(F)c(NC(=O)c3ccncn3)c2)cn1 [Example 1-034]	100
Cn1nc(C(F)(F)C(F)(F)F)c(C(F)(F)F)c1-n1cc(-c2ccc(F)c(NC(=O)c3ccccc3F)c2)cn1 [Example 1-071]	100
Cc1ncc(-c2cnn(-c3c(C(F)(F)F)c(C(F)(F)C(F)(F)F)nn3C)c2)cc1NC(=O)c1ccc(F)cc1 [Example 2-003]	100
COC1CCC(C(=O)Nc2cc(-c3cnn(-c4c(C(F)(F)F)c(C(F)(F)C(F)(F)F)nn4C)c3)ccc2F)CC1 (mixture of isomers) [Example 1-047]	100

Test system: Musca domestica
Experiment: Musca domestica test
Assay type: in vivo
Conditions: application rate 100 ppm; adult houseflies; after 2 days
Method: Solvent: dimethyl sulphoxide
To produce an appropriate active ingredient formulation, 10 mg of active ingredient are mixed with 0.5 ml of dimethyl sulphoxide, and the concentrate is diluted with water to the desired concentration.
Vessels containing a sponge treated with sugar solution and the active ingredient formulation of the desired concentration are populated with 10 adult houseflies (Musca domestica).
After 2 days, the kill in % is determined. 100% means that all of the flies have been killed; 0% means that none of the flies have been killed.

Structure (SMILES)	efficacy (kill in %) [%]
Cn1nc(C(F)(F)C(F)(F)F)c(C(F)(F)F)c1-n1cc(-c2ccc(F)c(NC(=O)c3ccncn3)c2)cn1 [Example 1-034]	100
Cn1nc(C(F)(F)C(F)(F)F)c(C(F)(F)F)c1-n1cc(-c2ccc(F)c(NC(=O)c3ccccc3F)c2)cn1 [Example 1-071]	80
Cc1ncc(-c2cnn(-c3c(C(F)(F)F)c(C(F)(F)C(F)(F)F)nn3C)c2)cc1NC(=O)c1ccc(F)cc1 [Example 2-003]	100
COC1CCC(C(=O)Nc2cc(-c3cnn(-c4c(C(F)(F)F)c(C(F)(F)C(F)(F)F)nn4C)c3)ccc2F)CC1 (mixture of isomers) [Example 1-047]	80

Test system: Tetranychus urticae
Experiment: Tetranychus urticae spray test, OP-resistant
Assay type: in vivo
Conditions: application rate 100 g/ha; after 6 days
Procedure, shortened: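 Bean leaf discs (Phaseolus vulgaris) carrying all stages of OP-resistant mites are sprayed with compound formulated in solvent and emulsifier-containing water. Efficacy (% mites killed) is scored after 6 days.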

Structure (SMILES)	efficacy [%]
Cn1nc(C(F)(F)C(F)(F)F)c(C(F)(F)F)c1-n1cc(-c2ccc(F)c(NC(=O)c3ccncn3)c2)cn1 [Example 1-034]	100
Cn1nc(C(F)(F)C(F)(F)F)c(C(F)(F)F)c1-n1cc(-c2ccc(F)c(NC(=O)c3ccccc3F)c2)cn1 [Example 1-071]	100
Cc1ncc(-c2cnn(-c3c(C(F)(F)F)c(C(F)(F)C(F)(F)F)nn3C)c2)cc1NC(=O)c1ccc(F)cc1 [Example 2-003]	100
COC1CCC(C(=O)Nc2cc(-c3cnn(-c4c(C(F)(F)F)c(C(F)(F)C(F)(F)F)nn4C)c3)ccc2F)CC1 (mixture of isomers) [Example 1-047]	100

Test system: Ctenocephalides felis
Experiment: Ctenocephalides felis in vitro contact test with adult cat fleas
Assay type: in vivo
Conditions: application rate 5 μg/cm^2 (500 g/ha); after 48 h; fleas dead or moribund
Method: Ctenocephalides felis—In Vitro Contact Tests with Adult Cat Fleas
For the coating of the test tubes, 9 mg of active ingredient are first dissolved in 1 ml of acetone p.a. and then diluted to the desired concentration with acetone p.a. 250 μl of the solution are distributed homogeneously on the inner walls and base of a 25 ml test tube by turning and rocking on an orbital shaker (rocking rotation at 30 rpm for 2 h). With 900 ppm active ingredient solution and internal surface 44.7 cm^2, given homogeneous distribution, an area-based dose of 5 μg/cm^2 is achieved.
After the solvent has evaporated off, the tubes are populated with 5-10 adult cat fleas (Ctenocephalides felis), sealed with a perforated plastic lid and incubated in a horizontal position at room temperature and ambient humidity. After 48 h, efficacy is determined. To this end, the test tubes are stood upright and the fleas are knocked to the base of the tube. Fleas which remain motionless at the base or move in an uncoordinated manner are considered to be dead or moribund.
100% efficacy means that all the fleas were dead or moribund. 0% efficacy means that no fleas were harmed.

Structure (SMILES)	efficacy [%]
Cn1nc(C(F)(F)C(F)(F)F)c(C(F)(F)F)c1-n1cc(-c2ccc(F)c(NC(=O)c3ccncn3)c2)cn1 [Example 1-034]	100

Test system: Lucilia cuprina
Experiment: Lucilia cuprina test
Assay type: in vivo
Conditions: application rate 100 ppm; L1 larvae; after 2 days
Procedure, shortened: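 About 20 L1 larvae placed in vessels with minced horsemeat treated with compound (DMSO concentrate diluted in water) at the desired concentration. Kill (%) scored after 2 days; 100% means all larvae dead, 0% none.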

Structure (SMILES)	efficacy (kill in %) [%]
Cn1nc(C(F)(F)C(F)(F)F)c(C(F)(F)F)c1-n1cc(-c2ccc(F)c(NC(=O)c3ccncn3)c2)cn1 [Example 1-034]	100
Cn1nc(C(F)(F)C(F)(F)F)c(C(F)(F)F)c1-n1cc(-c2ccc(F)c(NC(=O)c3ccccc3F)c2)cn1 [Example 1-071]	100
Cc1ncc(-c2cnn(-c3c(C(F)(F)F)c(C(F)(F)C(F)(F)F)nn3C)c2)cc1NC(=O)c1ccc(F)cc1 [Example 2-003]	100
COC1CCC(C(=O)Nc2cc(-c3cnn(-c4c(C(F)(F)F)c(C(F)(F)C(F)(F)F)nn4C)c3)ccc2F)CC1 (mixture of isomers) [Example 1-047]	100

Test system: Phaedon cochleariae
Experiment: Phaedon cochleariae spray test
Assay type: in vivo
Conditions: application rate 100 g/ha; larvae; after 7 days
Procedure, shortened: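 Chinese cabbage leaf discs were sprayed with the compound formulated in water containing 1000 ppm emulsifier. After drying, they were infested with mustard beetle larvae. Efficacy was scored as % larvae killed after 7 days (100% = all dead, 0% = none).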

Structure (SMILES)	efficacy [%]
Cn1nc(C(F)(F)C(F)(F)F)c(C(F)(F)F)c1-n1cc(-c2ccc(F)c(NC(=O)c3ccncn3)c2)cn1 [Example 1-034]	100
Cn1nc(C(F)(F)C(F)(F)F)c(C(F)(F)F)c1-n1cc(-c2ccc(F)c(NC(=O)c3ccccc3F)c2)cn1 [Example 1-071]	100
Cc1ncc(-c2cnn(-c3c(C(F)(F)F)c(C(F)(F)C(F)(F)F)nn3C)c2)cc1NC(=O)c1ccc(F)cc1 [Example 2-003]	100
COC1CCC(C(=O)Nc2cc(-c3cnn(-c4c(C(F)(F)F)c(C(F)(F)C(F)(F)F)nn4C)c3)ccc2F)CC1 (mixture of isomers) [Example 1-047]	100
